Experimental data as given in patent US4314061A, “Certain 3,6-bis-(heteroaminoalkoxy) acridines” (priority 1980, dated 1982).

Assays:
[1] = system: B-16 melanoma; test: Potentiation of cyclophosphamide (Cytoxan) activity against B16 melanoma in mice; format: in vivo, BDF1 mice
Method: BDF1 male mice were inoculated subcutaneously with 0.25 ml. of a 10% B-16 melanoma homogenate. Cyclophosphamide was administered intraperitoneally at 80 mg./kg. the second day following the day of tumor implantation. Test compounds were given intraperitoneally on days +6, +8 and +10 relative to tumor implantation. […]
BDF1 male mice inoculated subcutaneously with 0.25 ml. of a 10% tumo
homogenate on day 0. Drugs were administered intraperitoneally;
cyclophosphoamide on day 2, 3,6bis(2-diethylaminoethoxy)acridine
trihydrochloride on days 6, 8 and 10.
^1 Number of survivors over number of mice treated.

[2] = system: Rauscher Virus-Induced Leukemia; test: Inhibition of splenomegaly in mice with Rauscher virus-induced leukemia; format: in vivo, Balb/c mice
[3] = system: circulating interferon; test: Induction of circulating interferon in mice; format: in vivo, BDF1 mice; settings: 300 mg/kg single oral
[4] = system: normal mouse bone marrow; test: Effect on normal mouse bone marrow; format: in vivo, C57 BL6 male mice; settings: 24 hours after treatment; test compound oral, Cytoxan intraperitoneal
Method: The effect of drugs on normal mouse bone marrow is evaluated by determining total cell counts of femurs and by the ability of surviving cells to form colonies in semi-solid medium. The test compound is administered orally and the reference drug Cytoxan is administered intraperitoneally to C57 BL6 male mice. One femur from each of three mice per dose level is assayed 24 hours after treatment. Counts of nucleated cells are performed on pooled marrow suspensions and the clonogenic assay is performed by plating 50,000 cells in one ml. of culture medium in each of four culture dishes. The medium to support bone marrow progenitor cell growth is McCoy's medium supplemented with 0.9% methocel, 1.8% human serum albumin, 10% bovine fetal serum and 10% "conditioned" L-cell medium. Cultures are incubated at 37° C. in a humidified atmosphere and colonies are counted at seven days.

[5] = system: Columbia SK virus; test: Antiviral effects against an interferon-sensitive virus, Columbia SK; format: in vivo, Taconic Farms male, white mice; settings: 400 mg/kg oral, 18 hours before infection; 14 days post injection
Method: Taconic Farms male, white mice, weighing 18-24 g were treated by gavage, 18 hours before infection with a test compound suspended or dissolved in 1.0 ml of 0.2% aqueous agar solution. The mice were then infected by subcutaneous injection with one LD95 of Columbia SK virus in 0.2 ml of distilled water. Groups of infected, untreated mice were used as controls to show the lethality of the infection. The test duration was 14 days.

[6] = system: Lewis lung carcinoma; test: Surgical-adjuvant antitumor activity against Lewis lung carcinoma implanted subcutaneously in footpads; format: in vivo, BDF1 mice; settings: for Average % of tumor weight inhibition / Average tumor weight: Day +11; for No. Survivors/No. Treated: at +90 days; for % Increased life-span: + significant (≥25%)
Method: BDF1 mice were inoculated subcutaneously in the right hind footpad with 5×10^5 viable Lewis Lung carcinoma cells, on day zero. […] A control group of mice received a saline placebo instead of drug, and another group of tumor bearing mice received the positive control drug cyclophosphamide, at 100 mg/kg, administered by intraperitoneal injection. On the 11th day after tumor implantation, the mice were anesthesized with Nembutal, and the tumor bearing feet surgically amputated above the ankle joint. The surgical incision was swabbed with alcohol and sealed with stainless steel wound clips. The tumor bearing feet were individually weighed and the average weight of a normal foot (determined by weighing amputated feet from non-tumor bearing mice of the same age, sex and body weight) was subtracted to obtain the weight of tumor tissue in the amputated foot. Mice were then observed for deaths until the 90th day after tumor implantation. […]
^1 BDF1 male mice inoculated subcutaneously in footpad with 5
× 10^5 Lewis lung tumor cells on day zero;
3,6bis(2-diethylaminoethoxy)acridine trihydrochloride administered orally
and Cyclophosphamide intraperitoneally, on days 1, 7, and 13 following
^2 Average tumor weight determined after surgical amputation of tumor
bearing foot on day 11 following tumor implantation.

[7] = 25 mg/kg i.p. + cyclophosphamide 80 mg/kg
[8] = 25 mg/kg i.p. + cyclophosphamide 80 mg/kg, day 21
[9] = 50 mg/kg i.p. + cyclophosphamide 80 mg/kg
[10] = 50 mg/kg i.p. + cyclophosphamide 80 mg/kg, day 21
[11] = 100 mg/kg i.p. + cyclophosphamide 80 mg/kg
[12] = 100 mg/kg i.p. + cyclophosphamide 80 mg/kg, day 21

## CCN(CC)CCOc1ccc2cc3ccc(OCCN(CC)CC)cc3nc2c1.Cl.Cl.Cl
[1]; [7]
  ILS (Percent increase in life span over control): 31%
  MST (Median Survival Time): 29.5 days
[1]; [8]
  Average tumor weight: 2029 mg
  Number of survivors over number of mice treated: 8/8
[1]; 25 mg/kg i.p. + cyclophosphamide 80 mg/kg, day 26
  Number of survivors over number of mice treated: 6/8
[1]; 25 mg/kg i.p. + cyclophosphamide 80 mg/kg, day 26, p <0.05 vs cyclophosphamide alone and vs either drug alone
  Average tumor weight: 3125 mg
[1]; 25 mg/kg i.p. alone
  ILS (Percent increase in life span over control): 27%
  MST (Median Survival Time): 28.5 days
[1]; 25 mg/kg i.p. alone, day 21
  Average tumor weight: 2625 mg
  Number of survivors over number of mice treated: 7/8
[1]; 25 mg/kg i.p. alone, day 26
  Number of survivors over number of mice treated: 5/8
[1]; 25 mg/kg i.p. alone, day 26, p <0.05 vs untreated
  Average tumor weight: 6303 mg
[1]; [9]
  ILS (Percent increase in life span over control): 27%
  MST (Median Survival Time): 28.5 days
[1]; [10]
  Average tumor weight: 2041 mg
  Number of survivors over number of mice treated: 8/8
[1]; 50 mg/kg i.p. + cyclophosphamide 80 mg/kg, day 26
  Number of survivors over number of mice treated: 7/8
[1]; 50 mg/kg i.p. + cyclophosphamide 80 mg/kg, day 26, p <0.05 vs cyclophosphamide alone
  Average tumor weight: 4258 mg
[1]; 50 mg/kg i.p. alone
  ILS (Percent increase in life span over control): 18%
  MST (Median Survival Time): 26.5 days
[1]; 50 mg/kg i.p. alone, day 21
  Number of survivors over number of mice treated: 7/8
[1]; 50 mg/kg i.p. alone, day 21, p <0.05 vs untreated
  Average tumor weight: 2168 mg
[1]; 50 mg/kg i.p. alone, day 26
  Number of survivors over number of mice treated: 4/8
[1]; 50 mg/kg i.p. alone, day 26, p <0.05 vs untreated
  Average tumor weight: 3111 mg
[1]; [11]
  ILS (Percent increase in life span over control): 22%
  MST (Median Survival Time): 27.5 days
[1]; [12]
  Average tumor weight: 1532 mg
  Number of survivors over number of mice treated: 8/8
[1]; 100 mg/kg i.p. + cyclophosphamide 80 mg/kg, day 26
  Number of survivors over number of mice treated: 5/8
[1]; 100 mg/kg i.p. + cyclophosphamide 80 mg/kg, day 26, p <0.05 vs cyclophosphamide alone
  Average tumor weight: 2836 mg
[1]; 100 mg/kg i.p. alone
  ILS (Percent increase in life span over control): 22%
  MST (Median Survival Time): 27.5 days
[1]; 100 mg/kg i.p. alone, day 21
  Number of survivors over number of mice treated: 7/8
[1]; 100 mg/kg i.p. alone, day 21, p <0.05 vs untreated
  Average tumor weight: 1892 mg
[1]; 100 mg/kg i.p. alone, day 26
  Number of survivors over number of mice treated: 7/8
[1]; 100 mg/kg i.p. alone, day 26, p <0.05 vs untreated
  Average tumor weight: 4127 mg
[1]; in combination with Cytoxan, i.p., day +26
  inhibition in local tumor growth: 50%
[1]; monotherapy, i.p., day +26
  50% inhibition in local tumor growth, in words: failed to do so
[2]; 50 mg/kg
  % Reduction in splenomegaly: 68%
[2]; 100 mg/kg
  % Reduction in splenomegaly: 71%
[3]
  Induction of circulating interferon, in words: induced the production of high levels of circulating interferon
  Time of peak titers of interferon after drug administration: 16 to 24 h
[3]; 0 hours
  Serum interferon titer: 10 units/ml
[3]; 8 hours
  Serum interferon titer: 100 units/ml
[3]; 16 hours
  Serum interferon titer: 3200 units/ml
[3]; 24 hours
  Serum interferon titer: 3200 units/ml
[3]; 32 hours
  Serum interferon titer: 2100 units/ml
[3]; 48 hours
  Serum interferon titer: 50 units/ml
[3]; 72 hours
  Interferon titer 72 hours after drug treatment, in words: at normal levels
  Serum interferon titer: 10 units/ml
[4]
  Effect on total nucleated cell count of femur marrow, in words: minimal effects on the total nucleated cell count
[5]
  Survivors/Total: 10/15
[6]; 50 mg/kg oral
  Median survival time: > 90.0 days
  Average % of tumor weight inhibition: 38%
  Average tumor weight: 236 mg
  No. Survivors/No. Treated: 8/12
  % Increased life-span: > 200%
[6]; 100 mg/kg oral
  Median survival time: > 90.0 days
  Average % of tumor weight inhibition: 46%
  Average tumor weight: 203 mg
  % Increased life-span: > 200%
[6]; 100 mg/kg oral, ** p < .05
  No. Survivors/No. Treated: 9/12
[6]; 200 mg/kg oral
  Median survival time: > 90.0 days
  Average tumor weight: 38 mg
  % Increased life-span: > 200%
[6]; 200 mg/kg oral, * significant (≥58%)
  Average % of tumor weight inhibition: 90%
[6]; 200 mg/kg oral, ** p < .05
  No. Survivors/No. Treated: 12/12
[6]; 300 mg/kg oral
  Median survival time: > 90.0 days
  Average tumor weight: 56 mg
  % Increased life-span: > 200%
[6]; 300 mg/kg oral, * significant (≥58%)
  Average % of tumor weight inhibition: 85%
[6]; 300 mg/kg oral, ** p < .05
  No. Survivors/No. Treated: 10/12
[6]; 400 mg/kg oral
  Median survival time: > 90.0 days
  Average tumor weight: 17 mg
  % Increased life-span: > 200%
[6]; 400 mg/kg oral, * significant (≥58%)
  Average % of tumor weight inhibition: 96%
[6]; 400 mg/kg oral, ** p < .05
  No. Survivors/No. Treated: 10/12
